Measurements taken from article PMC10599993, “The PTPN2/PTPN1 inhibitor ABBV-CLS-484 unleashes potent anti-tumour immunity” (Nature, 2023).

Legend:
Experiment in all cases: biochemical
Design in all cases: Kinase selectivity panel, IC50 of AC484 (Supplementary Table 1)
MINK1 = MINK1 (Homo sapiens, UniProt Q8N4C8)
Blk = Blk (Homo sapiens, UniProt P51451)
TXK = TXK (Homo sapiens, UniProt P42681)
Aurora 1 = target: T1, Aurora 1 (Homo sapiens, UniProt Q96GD4)
T1 construct: gene AURKB

PDGFRB = PDGFRB (Homo sapiens, UniProt P09619)
PKCbeta1 = target: T2, PKCbeta1 (Homo sapiens, UniProt P05771)
T2 construct: gene PRKCB; isoform beta1

Rock1 = Rock1 (Homo sapiens, UniProt Q13464)
Zap70 = Zap70 (Homo sapiens, UniProt P43403)
SGK1 = SGK1 (Homo sapiens, UniProt O00141)
PKCbeta2 = target: T3, PKCbeta2 (Homo sapiens, UniProt P05771)
T3 construct: gene PRKCB; isoform beta2

CAMK2A = CAMK2A (Homo sapiens, UniProt Q9UQM7)
LYN-B = target: T4, LYN-B (Homo sapiens, UniProt P07948)
T4 construct: isoform B

Dyrk1A = Dyrk1A (Homo sapiens, UniProt Q13627)
IRAK4 = IRAK4 (Homo sapiens, UniProt Q9NWZ3)
Src = Src (Homo sapiens, UniProt P12931)
MAP2K3 = MAP2K3 (Homo sapiens, UniProt P46734)
DDR1 = DDR1 (Homo sapiens, UniProt Q08345)
JAK3 = JAK3 (Homo sapiens, UniProt P52333)
CDK9/Cyclin K = CDK9/Cyclin K (Homo sapiens, UniProt P50750)
MEK1 = target: T5, MEK1 (Homo sapiens, UniProt Q02750)
T5 construct: gene MAP2K1

RET = RET (Homo sapiens, UniProt P07949)
Pim1 = Pim1 (Homo sapiens, UniProt P11309)
CSK = CSK (Homo sapiens, UniProt P41240)
MAP4K4 = MAP4K4 (Homo sapiens, UniProt O95819)
MERTK = MERTK (Homo sapiens, UniProt Q12866)
PAK4KD = target: T6, PAK4KD (Homo sapiens, UniProt O96013)
T6 construct: gene PAK4; kinase domain

Erk2 = target: T7, Erk2 (Homo sapiens, UniProt P28482)
T7 construct: gene MAPK1

MAP4K2 = MAP4K2 (Homo sapiens, UniProt Q12851)
PKCepsilon = target: T8, PKCepsilon (Homo sapiens, UniProt Q02156)
T8 construct: gene PRKCE

Measured: IC50

T4 sequence (P07948 whole entry, canonical isoform): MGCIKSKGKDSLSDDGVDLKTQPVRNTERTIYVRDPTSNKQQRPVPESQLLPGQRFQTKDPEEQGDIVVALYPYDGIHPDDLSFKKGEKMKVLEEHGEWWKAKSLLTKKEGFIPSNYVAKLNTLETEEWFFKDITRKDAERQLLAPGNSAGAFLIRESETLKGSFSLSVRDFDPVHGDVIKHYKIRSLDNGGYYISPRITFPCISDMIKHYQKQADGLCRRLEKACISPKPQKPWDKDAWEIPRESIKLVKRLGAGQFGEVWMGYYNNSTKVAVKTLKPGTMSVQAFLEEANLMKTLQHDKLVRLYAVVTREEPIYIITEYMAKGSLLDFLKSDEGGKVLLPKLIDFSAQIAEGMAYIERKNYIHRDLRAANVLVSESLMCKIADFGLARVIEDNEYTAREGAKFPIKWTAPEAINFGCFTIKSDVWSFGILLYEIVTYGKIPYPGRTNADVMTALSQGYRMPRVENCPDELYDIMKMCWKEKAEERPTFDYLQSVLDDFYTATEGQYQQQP
TXK, sequence (P42681 whole entry): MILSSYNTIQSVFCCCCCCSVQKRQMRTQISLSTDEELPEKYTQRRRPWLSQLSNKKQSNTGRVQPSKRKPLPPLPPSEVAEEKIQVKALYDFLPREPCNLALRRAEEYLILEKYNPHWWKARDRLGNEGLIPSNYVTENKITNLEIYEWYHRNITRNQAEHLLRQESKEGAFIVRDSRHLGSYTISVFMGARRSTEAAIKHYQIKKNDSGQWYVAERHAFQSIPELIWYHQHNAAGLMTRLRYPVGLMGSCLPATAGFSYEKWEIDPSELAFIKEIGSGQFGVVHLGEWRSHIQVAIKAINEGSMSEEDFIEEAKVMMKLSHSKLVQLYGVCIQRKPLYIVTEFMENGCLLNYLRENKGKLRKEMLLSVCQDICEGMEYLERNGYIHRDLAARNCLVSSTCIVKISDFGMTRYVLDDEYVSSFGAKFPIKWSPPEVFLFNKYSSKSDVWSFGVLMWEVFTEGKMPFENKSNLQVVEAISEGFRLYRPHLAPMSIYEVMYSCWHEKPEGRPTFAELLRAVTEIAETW
JAK3, sequence (P52333 whole entry): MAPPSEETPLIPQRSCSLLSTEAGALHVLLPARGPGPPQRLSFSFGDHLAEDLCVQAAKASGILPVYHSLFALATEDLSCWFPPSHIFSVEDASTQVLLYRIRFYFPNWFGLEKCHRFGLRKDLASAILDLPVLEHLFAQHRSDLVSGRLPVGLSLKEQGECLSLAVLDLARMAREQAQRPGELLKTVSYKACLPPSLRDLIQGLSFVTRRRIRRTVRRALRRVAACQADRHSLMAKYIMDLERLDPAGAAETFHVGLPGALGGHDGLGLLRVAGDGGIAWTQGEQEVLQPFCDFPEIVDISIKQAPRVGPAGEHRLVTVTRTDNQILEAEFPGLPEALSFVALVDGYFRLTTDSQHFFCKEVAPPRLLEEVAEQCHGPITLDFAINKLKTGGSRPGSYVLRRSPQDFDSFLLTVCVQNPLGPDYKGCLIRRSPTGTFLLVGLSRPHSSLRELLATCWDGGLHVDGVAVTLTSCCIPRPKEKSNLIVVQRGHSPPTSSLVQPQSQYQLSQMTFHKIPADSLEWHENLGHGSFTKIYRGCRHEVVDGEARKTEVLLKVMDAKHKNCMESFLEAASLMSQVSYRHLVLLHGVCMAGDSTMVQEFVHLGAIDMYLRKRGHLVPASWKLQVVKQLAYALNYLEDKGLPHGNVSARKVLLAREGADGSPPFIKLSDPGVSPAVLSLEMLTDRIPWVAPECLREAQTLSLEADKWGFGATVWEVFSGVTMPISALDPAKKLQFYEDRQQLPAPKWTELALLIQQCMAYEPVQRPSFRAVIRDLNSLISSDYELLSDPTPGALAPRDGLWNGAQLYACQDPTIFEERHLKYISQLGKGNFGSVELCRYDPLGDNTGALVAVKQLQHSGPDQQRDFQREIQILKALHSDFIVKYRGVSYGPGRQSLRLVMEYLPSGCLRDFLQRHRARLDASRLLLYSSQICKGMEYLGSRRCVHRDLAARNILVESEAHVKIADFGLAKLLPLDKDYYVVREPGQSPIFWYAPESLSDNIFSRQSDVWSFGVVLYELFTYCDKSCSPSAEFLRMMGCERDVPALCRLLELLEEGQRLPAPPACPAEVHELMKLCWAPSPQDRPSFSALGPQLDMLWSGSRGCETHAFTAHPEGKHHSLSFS
MERTK, sequence (Q12866 whole entry): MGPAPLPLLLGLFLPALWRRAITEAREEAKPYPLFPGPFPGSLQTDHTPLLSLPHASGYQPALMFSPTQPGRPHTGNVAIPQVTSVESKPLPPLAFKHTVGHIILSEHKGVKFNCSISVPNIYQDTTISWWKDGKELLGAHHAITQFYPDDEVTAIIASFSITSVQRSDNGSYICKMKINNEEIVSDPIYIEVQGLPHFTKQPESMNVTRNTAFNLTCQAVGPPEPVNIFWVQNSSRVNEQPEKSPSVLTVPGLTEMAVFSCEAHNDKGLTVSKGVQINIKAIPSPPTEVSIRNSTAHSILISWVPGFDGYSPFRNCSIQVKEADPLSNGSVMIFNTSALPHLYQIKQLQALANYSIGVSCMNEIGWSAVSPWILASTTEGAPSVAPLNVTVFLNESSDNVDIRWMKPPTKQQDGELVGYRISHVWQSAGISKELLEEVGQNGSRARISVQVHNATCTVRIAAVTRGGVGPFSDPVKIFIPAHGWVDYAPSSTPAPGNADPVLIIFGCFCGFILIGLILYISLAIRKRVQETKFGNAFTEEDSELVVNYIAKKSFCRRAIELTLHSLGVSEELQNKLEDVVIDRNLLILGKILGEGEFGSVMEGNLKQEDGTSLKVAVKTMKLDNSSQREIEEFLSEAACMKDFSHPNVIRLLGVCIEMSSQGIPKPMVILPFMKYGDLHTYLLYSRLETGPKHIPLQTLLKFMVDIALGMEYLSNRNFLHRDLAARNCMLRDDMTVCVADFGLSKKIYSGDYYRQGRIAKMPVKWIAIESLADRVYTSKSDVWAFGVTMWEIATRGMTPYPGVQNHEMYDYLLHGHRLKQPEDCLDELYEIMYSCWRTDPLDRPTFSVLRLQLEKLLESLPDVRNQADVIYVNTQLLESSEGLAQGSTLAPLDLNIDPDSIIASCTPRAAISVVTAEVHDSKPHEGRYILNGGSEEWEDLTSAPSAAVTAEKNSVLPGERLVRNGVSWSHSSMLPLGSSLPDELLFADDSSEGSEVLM
DDR1, sequence (Q08345 whole entry): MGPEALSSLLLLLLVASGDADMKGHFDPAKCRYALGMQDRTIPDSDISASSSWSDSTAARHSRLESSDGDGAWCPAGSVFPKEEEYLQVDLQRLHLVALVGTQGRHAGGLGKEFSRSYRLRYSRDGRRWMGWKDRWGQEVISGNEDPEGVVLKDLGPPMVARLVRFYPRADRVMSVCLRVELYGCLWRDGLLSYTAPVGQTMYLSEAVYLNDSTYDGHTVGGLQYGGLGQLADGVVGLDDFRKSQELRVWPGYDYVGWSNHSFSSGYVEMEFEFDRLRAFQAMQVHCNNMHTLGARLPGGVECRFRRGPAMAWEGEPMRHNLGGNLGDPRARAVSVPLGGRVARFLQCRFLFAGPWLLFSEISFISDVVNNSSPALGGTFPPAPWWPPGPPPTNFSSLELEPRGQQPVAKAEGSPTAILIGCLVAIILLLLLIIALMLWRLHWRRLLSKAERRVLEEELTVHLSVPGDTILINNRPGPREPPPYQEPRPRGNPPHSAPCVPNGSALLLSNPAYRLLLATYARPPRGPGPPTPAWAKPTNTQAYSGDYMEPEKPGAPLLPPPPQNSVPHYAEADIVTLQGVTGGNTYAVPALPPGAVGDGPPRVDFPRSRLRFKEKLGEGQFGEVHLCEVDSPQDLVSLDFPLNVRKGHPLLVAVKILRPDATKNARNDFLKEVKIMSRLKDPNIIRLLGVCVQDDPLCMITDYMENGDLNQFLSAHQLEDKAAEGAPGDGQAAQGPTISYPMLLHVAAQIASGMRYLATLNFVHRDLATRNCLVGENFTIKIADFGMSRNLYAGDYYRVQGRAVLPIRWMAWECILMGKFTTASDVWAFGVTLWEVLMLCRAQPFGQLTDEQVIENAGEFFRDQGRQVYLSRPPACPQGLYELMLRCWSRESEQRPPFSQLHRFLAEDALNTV
Pim1, sequence (P11309 whole entry): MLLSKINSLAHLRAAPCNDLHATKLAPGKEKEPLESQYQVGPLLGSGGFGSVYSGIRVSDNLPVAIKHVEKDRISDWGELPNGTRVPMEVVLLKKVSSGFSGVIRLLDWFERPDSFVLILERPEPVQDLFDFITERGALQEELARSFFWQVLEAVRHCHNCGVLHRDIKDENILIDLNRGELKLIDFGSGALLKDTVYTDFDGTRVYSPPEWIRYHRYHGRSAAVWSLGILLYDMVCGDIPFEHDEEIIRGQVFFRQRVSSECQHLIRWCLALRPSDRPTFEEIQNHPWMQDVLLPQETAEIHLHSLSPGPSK
CSK, sequence (P41240 whole entry): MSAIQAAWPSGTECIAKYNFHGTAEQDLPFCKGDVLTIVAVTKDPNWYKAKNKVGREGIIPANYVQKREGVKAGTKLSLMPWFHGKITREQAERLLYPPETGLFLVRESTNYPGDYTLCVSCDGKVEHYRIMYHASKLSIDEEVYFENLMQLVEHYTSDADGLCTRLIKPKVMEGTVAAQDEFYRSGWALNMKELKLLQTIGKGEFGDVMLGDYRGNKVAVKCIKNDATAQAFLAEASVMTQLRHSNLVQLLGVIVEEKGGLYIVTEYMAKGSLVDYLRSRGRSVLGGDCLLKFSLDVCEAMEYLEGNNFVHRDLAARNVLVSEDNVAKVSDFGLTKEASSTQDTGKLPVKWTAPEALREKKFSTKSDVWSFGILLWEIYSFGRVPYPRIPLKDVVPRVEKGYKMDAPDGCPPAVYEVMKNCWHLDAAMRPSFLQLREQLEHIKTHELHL

CC(C)CCN[C@@H]1CCc2cc(O)c(N3CC(=O)NS3(=O)=O)c(F)c2C1 [AC484, ABBV-CLS-484]
> 10 µM: all assays above
